In patent publication US10869924B2, “PD-L1 antagonist combination treatments” (MERCK PATENT GMBH, priority 2015, dated 2020):

Legend:
clear cell aRCC = conditions: cited from earlier work; for median PFS (mPFS): previously untreated patients with clear cell aRCC, axitinib 5 mg BID, single agent
human PBMC = experiment: Cytokine release, standard human PBMC in vitro test; assay type: cell-based
Text: The combination of avelumab plus anti-4-1BB antibody PF-05082566 and anti-OX40 antibody PF-04518600 has been evaluated for cytokine release using the standard human PBMC in vitro test. The cytokine release assay was completed for PF-05082566 alone and in combination with avelumab and PF-04518600.

Row | Compound | stratified hazard ratio (PFS) (clear cell aRCC; axitinib vs. sorafenib, 95% CI 0.56, 1.05) | median PFS (mPFS) (clear cell aRCC) | cytokine release (human PBMC)
1 | CNC(=O)c1ccccc1Sc1ccc2c(/C=C/c3ccccn3)n[nH]c2c1 [axitinib, N-methyl-2-[3-((E)-2-pyridin-2-yl-vinyl)-1H-indazol-6-ylsulfanyl]-benzamide] | 0.77 | 10.1 months | –
2 | CNC(=O)c1cc(Oc2ccc(NC(=O)Nc3ccc(Cl)c(C(F)(F)F)c3)cc2)ccn1 [sorafenib] | – | 6.5 months | –
3 | PF-05082566: novel fully human IgG2 monoclonal antibody agonist of 4-1BB | – | – | did not show a significant increase in cytokine release
